In the NIST ThermoML archive (doi:10.1016/j.fluid.2016.02.009):

Details: Liquid, Vibrating tube method

CC(C)CCOCCC(C)C [di-(3-methylbutyl) ether]
Details | mass density [kg/m3]
283.15 K, 100 kPa | 782.76
283.15 K, 5000 kPa | 786.88
283.15 K, 10000 kPa | 790.71
283.15 K, 15000 kPa | 794.36
283.15 K, 20000 kPa | 797.85
283.15 K, 25000 kPa | 801.22
283.15 K, 30000 kPa | 804.45
283.15 K, 35000 kPa | 807.58
283.15 K, 40000 kPa | 810.61
283.15 K, 45000 kPa | 813.52
283.15 K, 50000 kPa | 816.37
283.15 K, 55000 kPa | 819.14
283.15 K, 60000 kPa | 821.82
283.15 K, 65000 kPa | 824.44
288.15 K, 100 kPa | 778.71
288.15 K, 5000 kPa | 782.95
288.15 K, 10000 kPa | 786.89
288.15 K, 15000 kPa | 790.64
288.15 K, 20000 kPa | 794.22
288.15 K, 25000 kPa | 797.65
288.15 K, 30000 kPa | 800.95
288.15 K, 35000 kPa | 804.15
288.15 K, 40000 kPa | 807.23
288.15 K, 45000 kPa | 810.19
288.15 K, 50000 kPa | 813.09
288.15 K, 55000 kPa | 815.91
288.15 K, 60000 kPa | 818.64
288.15 K, 65000 kPa | 821.33
293.15 K, 100 kPa | 774.66
293.15 K, 5000 kPa | 779.03
293.15 K, 10000 kPa | 783.04
293.15 K, 15000 kPa | 786.89
293.15 K, 20000 kPa | 790.55
293.15 K, 25000 kPa | 794.08
293.15 K, 30000 kPa | 797.46
293.15 K, 35000 kPa | 800.71
293.15 K, 40000 kPa | 803.86
293.15 K, 45000 kPa | 806.9
293.15 K, 50000 kPa | 809.84
293.15 K, 55000 kPa | 812.71
293.15 K, 60000 kPa | 815.48
293.15 K, 65000 kPa | 818.18
298.15 K, 100 kPa | 770.6
298.15 K, 5000 kPa | 775.09
298.15 K, 10000 kPa | 779.24
298.15 K, 15000 kPa | 783.18
298.15 K, 20000 kPa | 786.94
298.15 K, 25000 kPa | 790.54
298.15 K, 30000 kPa | 793.99
298.15 K, 35000 kPa | 797.31
298.15 K, 40000 kPa | 800.51
298.15 K, 45000 kPa | 803.61
298.15 K, 50000 kPa | 806.62
298.15 K, 55000 kPa | 809.51
298.15 K, 60000 kPa | 812.33
298.15 K, 65000 kPa | 815.07
303.15 K, 100 kPa | 766.54
303.15 K, 5000 kPa | 771.15
303.15 K, 10000 kPa | 775.41
303.15 K, 15000 kPa | 779.46
303.15 K, 20000 kPa | 783.3
303.15 K, 25000 kPa | 786.98
303.15 K, 30000 kPa | 790.53
303.15 K, 35000 kPa | 793.91
303.15 K, 40000 kPa | 797.19
303.15 K, 45000 kPa | 800.34
303.15 K, 50000 kPa | 803.4
303.15 K, 55000 kPa | 806.36
303.15 K, 60000 kPa | 809.23
303.15 K, 65000 kPa | 812.01
308.15 K, 100 kPa | 762.46
308.15 K, 5000 kPa | 767.21
308.15 K, 10000 kPa | 771.57
308.15 K, 15000 kPa | 775.74
308.15 K, 20000 kPa | 779.67
308.15 K, 25000 kPa | 783.45
308.15 K, 30000 kPa | 787.05
308.15 K, 35000 kPa | 790.52
308.15 K, 40000 kPa | 793.86
308.15 K, 45000 kPa | 797.07
308.15 K, 50000 kPa | 800.19
308.15 K, 55000 kPa | 803.2
308.15 K, 60000 kPa | 806.11
308.15 K, 65000 kPa | 808.94
313.15 K, 100 kPa | 758.37
313.15 K, 5000 kPa | 763.24
313.15 K, 10000 kPa | 767.74
313.15 K, 15000 kPa | 772.01
313.15 K, 20000 kPa | 776.05
313.15 K, 25000 kPa | 779.9
313.15 K, 30000 kPa | 783.59
313.15 K, 35000 kPa | 787.12
313.15 K, 40000 kPa | 790.53
313.15 K, 45000 kPa | 793.81
313.15 K, 50000 kPa | 796.97
313.15 K, 55000 kPa | 800.03
313.15 K, 60000 kPa | 803
313.15 K, 65000 kPa | 805.88
318.15 K, 100 kPa | 754.27
318.15 K, 5000 kPa | 759.27
318.15 K, 10000 kPa | 763.91
318.15 K, 15000 kPa | 768.28
318.15 K, 20000 kPa | 772.42
318.15 K, 25000 kPa | 776.38
318.15 K, 30000 kPa | 780.14
318.15 K, 35000 kPa | 783.75
318.15 K, 40000 kPa | 787.22
318.15 K, 45000 kPa | 790.57
318.15 K, 50000 kPa | 793.81
318.15 K, 55000 kPa | 796.91
318.15 K, 60000 kPa | 799.93
318.15 K, 65000 kPa | 802.85
323.15 K, 100 kPa | 750.16
323.15 K, 5000 kPa | 755.32
323.15 K, 10000 kPa | 760.1
323.15 K, 15000 kPa | 764.59
323.15 K, 20000 kPa | 768.84
323.15 K, 25000 kPa | 772.87
323.15 K, 30000 kPa | 776.74
323.15 K, 35000 kPa | 780.43
323.15 K, 40000 kPa | 783.97
323.15 K, 45000 kPa | 787.37
323.15 K, 50000 kPa | 790.66
323.15 K, 55000 kPa | 793.83
323.15 K, 60000 kPa | 796.89
323.15 K, 65000 kPa | 799.86
328.15 K, 100 kPa | 746.03
328.15 K, 5000 kPa | 751.35
328.15 K, 10000 kPa | 756.23
328.15 K, 15000 kPa | 760.85
328.15 K, 20000 kPa | 765.22
328.15 K, 25000 kPa | 769.33
328.15 K, 30000 kPa | 773.28
328.15 K, 35000 kPa | 777.06
328.15 K, 40000 kPa | 780.66
328.15 K, 45000 kPa | 784.15
328.15 K, 50000 kPa | 787.49
328.15 K, 55000 kPa | 790.7
328.15 K, 60000 kPa | 793.83
328.15 K, 65000 kPa | 796.84
333.15 K, 100 kPa | 741.88
333.15 K, 5000 kPa | 747.34
333.15 K, 10000 kPa | 752.39
333.15 K, 15000 kPa | 757.12
333.15 K, 20000 kPa | 761.58
333.15 K, 25000 kPa | 765.79
333.15 K, 30000 kPa | 769.84
333.15 K, 35000 kPa | 773.7
333.15 K, 40000 kPa | 777.39
333.15 K, 45000 kPa | 780.93
333.15 K, 50000 kPa | 784.33
333.15 K, 55000 kPa | 787.59
333.15 K, 60000 kPa | 790.76
333.15 K, 65000 kPa | 793.83
